Target: T1, hen egg white lysozyme (HEWL) (Gallus gallus, UniProt P00698)
T1 construct: gene LYZ
Experiment: tryptophan fluorescence quenching
Type: binding
Conditions: 10 mM tris-HCl pH 7.5, room temperature; 10 µM HEWL, excitation 295 nm; double-log; fitted together with number of bound quencher molecules n
Text: tryptophan fluorescence quenching on hen egg white lysozyme (HEWL)

T1 sequence (P00698 19-147): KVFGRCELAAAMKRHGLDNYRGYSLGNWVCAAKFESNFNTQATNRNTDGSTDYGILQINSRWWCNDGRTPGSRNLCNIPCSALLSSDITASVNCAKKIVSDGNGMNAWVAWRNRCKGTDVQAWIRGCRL

Substance	Ka
Cu^IIWD	6.76e+08 M⁻¹
α2WD	6.91e+08 M⁻¹
